Experimental data taken from the NIST ThermoML archive (doi:10.1016/j.jct.2019.02.025).
Numbers after ± are expanded uncertainties.

Experiments:
[1] = for mass density / kinematic viscosity: 101.33 kPa, Liquid; for mass density: Vibrating tube method; for surface tension liquid-gas / kinematic viscosity: Surface laser light scattering (SLLS)
[2] = refractive index (Na D-line) (dimensionless); conditions: 101.33 kPa, Liquid, Standard Abbe refractometry

Compound `CCCCCC(=O)OC` [methyl hexanoate] has a mass density ([1]; 293.15 K) of 884.44 ± 1.8 kg/m3, a surface tension liquid-gas ([1]; 298.14 K) of 24.58 ± 0.52 mN/m and a kinematic viscosity ([1]; 298.14 K) of 1.02e-06 ± 3.4e-08 m2/s. It also gave a mass density ([1]; 303.15 K) of 874.79 ± 1.8 kg/m3, a mass density ([1]; 313.15 K) of 865.12 ± 1.7 kg/m3 and a mass density ([1]; 323.15 K) of 855.4 ± 1.7 kg/m3. For the same compound, the surface tension liquid-gas ([1]; 323.17 K) was 22.44 ± 0.16 mN/m, the kinematic viscosity ([1]; 323.17 K) was 7.49e-07 ± 2.5e-08 m2/s and the mass density ([1]; 333.15 K) was 845.68 ± 1.7 kg/m3. The mass density ([1]; 343.15 K) was 835.87 ± 1.7 kg/m3, the surface tension liquid-gas ([1]; 348.18 K) was 20.35 ± 0.09 mN/m and the kinematic viscosity ([1]; 348.18 K) was 5.74e-07 ± 2.3e-08 m2/s. For the same compound, the mass density ([1]; 353.15 K) was 825.97 ± 1.7 kg/m3, the mass density ([1]; 363.15 K) was 815.95 ± 1.6 kg/m3 and the mass density ([1]; 373.15 K) was 805.49 ± 1.6 kg/m3. It also gave a surface tension liquid-gas ([1]; 373.21 K) of 18.03 ± 0.15 mN/m, a kinematic viscosity ([1]; 373.21 K) of 4.53e-07 ± 1.8e-08 m2/s and a mass density ([1]; 383.15 K) of 795.6 ± 1.6 kg/m3. For the same compound, the mass density ([1]; 393.15 K) was 785.23 ± 1.6 kg/m3, the surface tension liquid-gas ([1]; 398.2 K) was 15.63 ± 0.08 mN/m and the kinematic viscosity ([1]; 398.2 K) was 3.74e-07 ± 1.6e-08 m2/s. The mass density ([1]; 403.15 K) was 774.67 ± 1.6 kg/m3, the mass density ([1]; 413.15 K) was 763.86 ± 1.5 kg/m3 and the surface tension liquid-gas ([1]; 423.17 K) was 13.36 ± 0.1 mN/m. The kinematic viscosity ([1]; 423.17 K) was 3.25e-07 ± 1.5e-08 m2/s, the surface tension liquid-gas ([1]; 448.17 K) was 11.18 ± 0.26 mN/m and the kinematic viscosity ([1]; 448.17 K) was 2.82e-07 ± 1.5e-08 m2/s. The refractive index ([2]; 278.15 K) was 1.41212 ± 0.0005, the refractive index ([2]; 283.15 K) was 1.40984 ± 0.0005 and the refractive index ([2]; 288.15 K) was 1.40757 ± 0.0005. For the same compound, the refractive index ([2]; 293.15 K) was 1.40529 ± 0.0005, the refractive index ([2]; 298.15 K) was 1.403 ± 0.0005 and the refractive index ([2]; 303.15 K) was 1.4007 ± 0.0005. It also gave a refractive index ([2]; 308.15 K) of 1.39841 ± 0.0005, a refractive index ([2]; 313.15 K) of 1.3961 ± 0.0005 and a refractive index ([2]; 318.15 K) of 1.39373 ± 0.0005. For the same compound, the refractive index ([2]; 323.15 K) was 1.39136 ± 0.0005, the refractive index ([2]; 328.15 K) was 1.38902 ± 0.0005 and the refractive index ([2]; 333.15 K) was 1.38667 ± 0.0005. It also gave a refractive index ([2]; 338.15 K) of 1.38432 ± 0.0005, a refractive index ([2]; 343.15 K) of 1.38169 ± 0.0005 and a refractive index ([2]; 348.15 K) of 1.37961 ± 0.0005. It also gave a refractive index ([2]; 353.15 K) of 1.37725 ± 0.0005 and a refractive index ([2]; 358.15 K) of 1.3749 ± 0.0005.
Work on `CCCCCCCC(=O)OC` [methyl octanoate] yielded a mass density ([1]; 293.15 K) of 876.58 ± 1.8 kg/m3, a surface tension liquid-gas ([1]; 298.19 K) of 24.65 ± 0.28 mN/m and a kinematic viscosity ([1]; 298.19 K) of 1.51e-06 ± 4.4e-08 m2/s. The mass density ([1]; 303.15 K) was 866.75 ± 1.7 kg/m3, the mass density ([1]; 313.15 K) was 858.95 ± 1.7 kg/m3 and the mass density ([1]; 323.15 K) was 850.13 ± 1.7 kg/m3. For the same compound, the surface tension liquid-gas ([1]; 323.21 K) was 23.02 ± 0.38 mN/m, the kinematic viscosity ([1]; 323.21 K) was 1.09e-06 ± 4.4e-08 m2/s and the mass density ([1]; 333.15 K) was 841.3 ± 1.7 kg/m3. The mass density ([1]; 343.15 K) was 832.44 ± 1.7 kg/m3, the surface tension liquid-gas ([1]; 348.23 K) was 21.61 ± 0.15 mN/m and the kinematic viscosity ([1]; 348.23 K) was 8.31e-07 ± 2.8e-08 m2/s. The mass density ([1]; 353.15 K) was 823.54 ± 1.6 kg/m3, the mass density ([1]; 363.15 K) was 814.59 ± 1.6 kg/m3 and the mass density ([1]; 373.15 K) was 805.56 ± 1.6 kg/m3. The surface tension liquid-gas ([1]; 373.28 K) was 19.62 ± 0.16 mN/m, the kinematic viscosity ([1]; 373.28 K) was 6.5e-07 ± 2.3e-08 m2/s and the mass density ([1]; 383.15 K) was 796.52 ± 1.6 kg/m3. The mass density ([1]; 393.15 K) was 787.36 ± 1.6 kg/m3, the surface tension liquid-gas ([1]; 398.31 K) was 17.62 ± 0.28 mN/m and the kinematic viscosity ([1]; 398.31 K) was 5.19e-07 ± 2e-08 m2/s. For the same compound, the mass density ([1]; 403.15 K) was 778.1 ± 1.6 kg/m3, the mass density ([1]; 413.15 K) was 768.72 ± 1.5 kg/m3 and the mass density ([1]; 423.15 K) was 759.27 ± 1.5 kg/m3. For the same compound, the surface tension liquid-gas ([1]; 423.31 K) was 15.47 ± 0.05 mN/m, the kinematic viscosity ([1]; 423.31 K) was 4.3e-07 ± 1.8e-08 m2/s and the mass density ([1]; 433.15 K) was 749.61 ± 1.5 kg/m3. For the same compound, the mass density ([1]; 443.15 K) was 739.56 ± 1.5 kg/m3, the surface tension liquid-gas ([1]; 448.33 K) was 13.44 ± 0.3 mN/m and the kinematic viscosity ([1]; 448.33 K) was 3.59e-07 ± 1.8e-08 m2/s. It also gave a mass density ([1]; 453.15 K) of 729.82 ± 1.5 kg/m3, a refractive index ([2]; 278.15 K) of 1.42385 ± 0.00049 and a refractive index ([2]; 283.15 K) of 1.42168 ± 0.00049. For the same compound, the refractive index ([2]; 288.15 K) was 1.41951 ± 0.00049, the refractive index ([2]; 293.15 K) was 1.41734 ± 0.00049 and the refractive index ([2]; 298.15 K) was 1.41516 ± 0.00049. For the same compound, the refractive index ([2]; 303.15 K) was 1.41298 ± 0.00049, the refractive index ([2]; 308.15 K) was 1.41079 ± 0.00049 and the refractive index ([2]; 313.15 K) was 1.40854 ± 0.00049. It also gave a refractive index ([2]; 318.15 K) of 1.40629 ± 0.00049, a refractive index ([2]; 323.15 K) of 1.40405 ± 0.00049 and a refractive index ([2]; 328.15 K) of 1.40183 ± 0.00049. For the same compound, the refractive index ([2]; 333.15 K) was 1.39965 ± 0.00049, the refractive index ([2]; 338.15 K) was 1.3975 ± 0.00049 and the refractive index ([2]; 343.15 K) was 1.39535 ± 0.00049. For the same compound, the refractive index ([2]; 348.15 K) was 1.3932 ± 0.00049, the refractive index ([2]; 353.15 K) was 1.39104 ± 0.00049 and the refractive index ([2]; 358.15 K) was 1.38886 ± 0.00049.
Compound `CCCCCCCCCCCCCC(=O)OC` [methyl tetradecanoate] has a mass density ([1]; 293.15 K) of 867.06 ± 1.7 kg/m3, a mass density ([1]; 303.15 K) of 859.28 ± 1.7 kg/m3 and a mass density ([1]; 313.15 K) of 851.61 ± 1.7 kg/m3. It also gave a mass density ([1]; 323.15 K) of 843.97 ± 1.7 kg/m3, a surface tension liquid-gas ([1]; 323.17 K) of 23.37 ± 0.83 mN/m and a kinematic viscosity ([1]; 323.17 K) of 2.41e-06 ± 7.6e-08 m2/s. For the same compound, the mass density ([1]; 333.15 K) was 836.37 ± 1.7 kg/m3, the mass density ([1]; 343.15 K) was 828.8 ± 1.7 kg/m3 and the surface tension liquid-gas ([1]; 348.16 K) was 21.83 ± 0.42 mN/m. The kinematic viscosity ([1]; 348.16 K) was 1.76e-06 ± 1.1e-07 m2/s, the mass density ([1]; 353.15 K) was 821.26 ± 1.6 kg/m3 and the mass density ([1]; 363.15 K) was 813.71 ± 1.6 kg/m3. The mass density ([1]; 373.15 K) was 806.17 ± 1.6 kg/m3, the surface tension liquid-gas ([1]; 373.18 K) was 20.78 ± 0.56 mN/m and the kinematic viscosity ([1]; 373.18 K) was 1.38e-06 ± 7.4e-08 m2/s. The mass density ([1]; 383.15 K) was 798.64 ± 1.6 kg/m3, the mass density ([1]; 393.15 K) was 791.09 ± 1.6 kg/m3 and the surface tension liquid-gas ([1]; 398.2 K) was 19.71 ± 0.09 mN/m. It also gave a kinematic viscosity ([1]; 398.2 K) of 1.08e-06 ± 3.3e-08 m2/s, a mass density ([1]; 403.15 K) of 783.52 ± 1.6 kg/m3 and a mass density ([1]; 413.15 K) of 775.91 ± 1.6 kg/m3. For the same compound, the mass density ([1]; 423.15 K) was 768.24 ± 1.5 kg/m3, the surface tension liquid-gas ([1]; 423.17 K) was 18.31 ± 0.15 mN/m and the kinematic viscosity ([1]; 423.17 K) was 8.63e-07 ± 2.8e-08 m2/s. For the same compound, the mass density ([1]; 433.15 K) was 760.61 ± 1.5 kg/m3, the mass density ([1]; 443.15 K) was 752.95 ± 1.5 kg/m3 and the surface tension liquid-gas ([1]; 448.17 K) was 16.82 ± 0.09 mN/m. For the same compound, the kinematic viscosity ([1]; 448.17 K) was 7e-07 ± 2.5e-08 m2/s, the mass density ([1]; 453.15 K) was 745.22 ± 1.5 kg/m3 and the refractive index ([2]; 293.15 K) was 1.43704 ± 0.00049. For the same compound, the refractive index ([2]; 298.15 K) was 1.43499 ± 0.00049, the refractive index ([2]; 303.15 K) was 1.43296 ± 0.00049 and the refractive index ([2]; 308.15 K) was 1.43093 ± 0.00049. For the same compound, the refractive index ([2]; 313.15 K) was 1.4289 ± 0.00049, the refractive index ([2]; 318.15 K) was 1.42681 ± 0.00049 and the refractive index ([2]; 323.15 K) was 1.42472 ± 0.00049. The refractive index ([2]; 328.15 K) was 1.42254 ± 0.00049, the refractive index ([2]; 333.15 K) was 1.4202 ± 0.00049 and the refractive index ([2]; 338.15 K) was 1.41783 ± 0.00049. The refractive index ([2]; 343.15 K) was 1.4163 ± 0.00049, the refractive index ([2]; 348.15 K) was 1.41474 ± 0.00049 and the refractive index ([2]; 353.15 K) was 1.41282 ± 0.00049. The refractive index ([2]; 358.15 K) was 1.41083 ± 0.00049.
